Molecules are shown by their SMILES. Several values for one entry are separate records, joined by “and”; a condition that tells them apart may be missing. Identical values can stand only once.

The values below come from patent publication US5229265A, “Process for analyzing clastogenic agents” (Litron Laboratories, priority 1990, dated 1993).

Series [1] concerns polychromatic cells (PCEs). As to the kind of experiment: PCE count in blood by flow cytometry. The settings on record: MMS 100 μg/g body weight IP at 0 and 48 hours. It is filed as in vivo, mouse. The protocol:
When two dyes are used for simultaneous micronucleus and PCE discrimination, the cell suspension is prepared as follows: The Hoechst 33258 working solution described above is prepared and is filtered through an 0.2 micron Acro-disk (Gilman Sciences). In addition, a propidium iodide (PI) working solution is prepared (5 mg PI/100 ml phosphate buffered saline (PBS)). A buffer-dye solution is then prepared by adding the PI solution (100 μl) and Hoechst 33258 working solution (25 μl) to PBS (867.5 μl). The resulting buffer-dye solution is then dispensed (992.5 μl) into samples tubes. A sample of fixed blood (15 μl) is then added to the corresponding tube. When blood from a malaria (P. berghei) infected mouse was fixed and stained by this procedure, the bivariate pattern shown in FIG. 1B resulted, in which a stronger red fluorescence signal was obtained. In this case, good resolution is achieved if BSA is omitted from the stained cell suspension. The pH of the stained solution is important for good fluorescence emission profiles and resolution of the different cell populations. With Hoechst 33258 and propidium iodide, good results can be obtained in the range from pH 6 to pH 8. Lower or higher pH levels cause a broadening of the fluorescence patterns which adversely affect the resolution of the PCes and micronucleated cells. Operationally,it is advisable to store the fixed samples and analyze freshly stained samples.
Although it is inappropriate to directly compare the number of MNs in the 0 hr and 96 hr samples because of this PCE change, it is possible to normalize the data to take into account said change. An increase in the number of PCEs will cause a decrease in the total number of MNs counted in the PCE window for a 96 hour sample. […]
Another staining embodiment of this invention involves the use of dual parameter data acquisition in conjunction with two dyes, Hoechst 33258 and propidium iodide so as to analyze both MNs and PCEs. […] Propidium iodide endows the PCEs with a strong red fluorescence signal which pulls them out of the RBC contour. […]
A general note: A flow cytometer gives signals particle by particle.

The test system of series [2] is micronucleated cells in blood. As to the kind of experiment: Single parameter flow cytometric micronucleus analysis, cyclophosphamide, effect of analysis window size. It is filed as in vivo, mouse. As to the method: In order to show this single parameter embodiment of this invention, the instrument was aligned with the malaria parasite, P. berghei, data was acquired, and analysis windows were defined relative to the malaria peak. […] A prominent peak, characteristic of cells single parasites, is evident. The primary analysis window was used to bracket the main peak and extends to the third log has mark. […] Blood samples (t=0 and t=96 hr) from a mouse that was dosed with cyclophosphamide (at t=0 and t=48 hrs) were stained with […] and the events were also acquired in the single parameter mode. FIGS. 9A and 9B show the blue fluorescence histograms that were obtained for the t=0 and the t=96 hr samples, respectively. The analysis windows shown in FIG. 9 are those that were initially set up with the malaria infected blood sample shown in FIG. 8. The number of events present in the primary analysis windows are shown. […]
Practioners in the art are presently unaware of the need for internal quality control on the flow cytometer signals during the analysis of each sample. […] As indicated earlier, neither RBC, PCEs, MN-cells nor the nucleated cell populations provide proper signals for evaluating instrument alignment since they are either nor present in sufficient quantities, the populations are too dispersed, or cell staining variations would be introduced. […]

As for `COS(C)(=O)=O` [MMS, methyl methanesulfonate], the “PCEs (96 hr)” value in series [1] (Hoechst 33258 & propidium iodide) was 17,684 PCEs per 500,000 cells and 15,408 PCEs per 500,000 cells and 13,095 PCEs per 500,000 cells and 14,356 PCEs per 500,000 cells. In addition, the “PCE Factor (K) (96 hr/0 hr)” value in series [1] (PCEs 96 hr/PCEs 0 hr per 100,000 total cells) was 2.49 and 1.36 and 2.07 and 2.22 and 2.12.

Turning to `O=P1(N(CCCl)CCCl)NCCCO1` (stereo not shown) [cyclophosphamide], the “clastogen stimulated increase in MNs” value in series [2] (cyclophosphamide at t=0 and t=48 hrs, primary or expanded window) is given as “clastogen stimulated increase in MNs is clearly evident”. Further, the “Sum96 (t = 96 hr)” value in series [2] (cyclophosphamide, primary window plus sequentially added secondary windows 2-8) is 1480 MN events and 1563 MN events and 1644 MN events and 1713 MN events and 1778 MN events and 1839 MN events and 1915 MN events.
